Assay [1] concerns MDA-MB-231, A172-A2 and PC3-DAB2IP KD cells. As to the kind of experiment: Chemotactic cell migration toward hepatocyte growth factor (HGF). The format is cell-based. The note with it: all three cell lines. The source says: One of the well-established functions of Eph receptors is the ligand-dependent repulsive guidance of cell migration. As a ligand-mimicking agonist for EphA2, doxazosin is expected to activate EphA2 on tumor cells and repulse migrating tumor cells in vitro. […] The inhibitory effects were observed when doxazosin was presented either in the bottom chamber, or in both top and bottom chambers in the Transwell assay system. […] Therefore, doxazosin can recapitulate a key function attributed to its native ligands, i.e., negative regulation of cell migration.

The target in assay [2] is T1, endogenous EphA2 (Homo sapiens, UniProt P29317). As to the kind of experiment: Activation of endogenous EphA2 in PC-3 cells (pEphA/B immunoblot). The conditions noted are these: 30 minutes. The format is cell-based. More on the design: host or cells: PC-3. On the procedure:
(§1) Cells were plated in 24-well dishes at a density of 100,000 cells/well and grown for 24 hours prior to stimulation with appropriate compounds and ephrins for the given amounts of time. Compounds were prepared in DMSO at 500 times the final concentrations and 0.2% DMSO was used as vehicle control. Following treatment, cells were lysed directly in SDS Gel Loading Buffer and immunoblotted as described previously. Immunoprecipitation and immunofluorescence staining was performed as described. For immunoprecipitation, 300,000 cells/well were plated in 6-well dishes and lysed in modified RIPA Buffer (20 mM Tris-HCl pH 7.4, 20 mM NaF, 150 mM NaCl, 10% glycerol, 0.1% SDS, 0.5% DCA, 2 mM EDTA, 1% Triton X-100) following treatment. Either 10 μg of ephrin-A1-Fc, or […] of EphA2 mouse monoclonal antibody (Clone D7, Millipore) were used, and mouse IgG was used as a negative control for EphA2 IP.
To determine whether the EphA2 agonist activity of doxazosin is cell-context specific, we evaluated the effects of doxazosin on additional cell types. We first utilized HEK 293 cells overexpressing EphA2 (HEK 293-A2) that we described previously. […] Next we tested PC-3 cells that express high levels of endogenous EphA2 receptor. […] We next evaluated the time-course of activation in both MDA-231-A2 and HEK 293-A2 cells upon treatment with a single 50 μM dose of doxazosin.
For orientation: In western blotting, separated proteins are transferred to a membrane and probed.

The target of assay [3] is T2, rat α1a adrenergic receptor (Rattus norvegicus, UniProt P43140).
T2 construct: Eurofins Panlabs Taiwan, Ltd. (contract assay)
T2 sequence (P43140 1-466): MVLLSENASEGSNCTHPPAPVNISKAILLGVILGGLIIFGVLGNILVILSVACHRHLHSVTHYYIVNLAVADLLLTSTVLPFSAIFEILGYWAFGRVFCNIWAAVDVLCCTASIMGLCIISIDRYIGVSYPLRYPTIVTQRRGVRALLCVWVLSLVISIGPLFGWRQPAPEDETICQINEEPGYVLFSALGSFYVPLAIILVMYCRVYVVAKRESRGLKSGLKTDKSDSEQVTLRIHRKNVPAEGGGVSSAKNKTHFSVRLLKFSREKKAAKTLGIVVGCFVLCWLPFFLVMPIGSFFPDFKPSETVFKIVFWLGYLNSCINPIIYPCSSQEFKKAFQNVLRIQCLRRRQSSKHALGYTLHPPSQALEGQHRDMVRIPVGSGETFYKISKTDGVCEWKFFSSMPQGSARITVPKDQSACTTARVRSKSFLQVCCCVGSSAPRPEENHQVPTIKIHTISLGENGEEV
As to the kind of experiment: Adrenoceptor binding, [3H]-prazosin competition. The note with it: [3H]-prazosin 0.25 nM, triplicate, mean±SD; read-out: IC50, α-adrenoceptor binding. The procedure: Analysis of Doxazosin and analog binding to rat α1a adrenergic receptor was performed by Eurofins Panlabs Taiwan, Ltd. (Taiwan). [^3H]-prazosin at 0.25 nM was used as the radioligand. […] Non-specific binding was defined by use of 10 μM phentolamine. Incubations were terminated by vacuum filtration over 0.1% PEI pretreated glass fiber filters and filters were washed for 10 s with ice cold 0.1M NaCl and radioactivity retained on the filters was determined by liquid scintillation spectrometry. IC50 values were determined by a non-linear regression analysis using GraphPad Prism v.5 (GraphPad).

In another assay the target is EphA2 (Homo sapiens, UniProt P29317). As to the kind of experiment: EphA2 internalization in U373-A2 cells (immunofluorescence). Type of assay: cell-based. On the set-up: expressed in transfected cells. The conditions noted are these: 60 min, DZ 50 μM, ephrin-A1-Fc 1 μg/ml. On the procedure: as §1
Sequence of EphA2 (P29317 24-976): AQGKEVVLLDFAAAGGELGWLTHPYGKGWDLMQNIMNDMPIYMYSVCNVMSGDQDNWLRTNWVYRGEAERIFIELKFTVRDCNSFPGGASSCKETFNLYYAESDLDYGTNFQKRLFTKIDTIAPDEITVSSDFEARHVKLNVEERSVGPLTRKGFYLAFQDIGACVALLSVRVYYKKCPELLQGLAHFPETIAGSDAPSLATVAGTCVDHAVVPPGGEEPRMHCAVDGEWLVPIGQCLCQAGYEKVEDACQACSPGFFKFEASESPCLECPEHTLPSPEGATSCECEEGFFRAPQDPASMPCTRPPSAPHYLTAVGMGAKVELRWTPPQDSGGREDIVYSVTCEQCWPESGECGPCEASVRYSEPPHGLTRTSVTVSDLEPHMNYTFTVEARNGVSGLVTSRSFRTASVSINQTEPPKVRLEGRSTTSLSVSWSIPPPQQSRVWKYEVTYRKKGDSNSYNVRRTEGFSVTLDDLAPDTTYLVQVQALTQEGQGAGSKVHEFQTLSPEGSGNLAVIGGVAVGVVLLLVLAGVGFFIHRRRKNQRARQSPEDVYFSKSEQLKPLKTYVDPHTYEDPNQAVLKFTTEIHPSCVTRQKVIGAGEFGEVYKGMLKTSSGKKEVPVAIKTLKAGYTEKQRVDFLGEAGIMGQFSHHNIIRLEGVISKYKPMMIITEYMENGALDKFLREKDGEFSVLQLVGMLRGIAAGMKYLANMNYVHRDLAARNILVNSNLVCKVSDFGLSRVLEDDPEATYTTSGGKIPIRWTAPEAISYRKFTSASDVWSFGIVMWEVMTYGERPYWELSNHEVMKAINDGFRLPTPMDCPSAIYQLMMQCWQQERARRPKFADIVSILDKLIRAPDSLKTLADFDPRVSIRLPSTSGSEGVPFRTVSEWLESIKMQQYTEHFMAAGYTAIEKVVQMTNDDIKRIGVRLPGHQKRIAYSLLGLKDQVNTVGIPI
(§2) Similar to other receptor tyrosine kinases, activation of the EphA2 receptor by its ligand, ephrin-A1, results in receptor internalization and eventual degradation. […] This was first performed using the U373 glioma cell line engineered to overexpress EphA2.

The target in assay [4] is T1, endogenous EphA2. As to the kind of experiment: EphA2 internalization in parental MDA-MB-231 cells (immunofluorescence, Example 1). Type of assay: cell-based. On the set-up: host or cells: MDA-MB-231 (parental). The conditions noted are these: 50 μM, two hours. On the procedure:
as §1, §2

The next assay deals with T3, EphB3 (Homo sapiens, UniProt P54753).
T3 construct: expressed in transfected cells; host or cells: HEK 293
T3 sequence (P54753 34-998): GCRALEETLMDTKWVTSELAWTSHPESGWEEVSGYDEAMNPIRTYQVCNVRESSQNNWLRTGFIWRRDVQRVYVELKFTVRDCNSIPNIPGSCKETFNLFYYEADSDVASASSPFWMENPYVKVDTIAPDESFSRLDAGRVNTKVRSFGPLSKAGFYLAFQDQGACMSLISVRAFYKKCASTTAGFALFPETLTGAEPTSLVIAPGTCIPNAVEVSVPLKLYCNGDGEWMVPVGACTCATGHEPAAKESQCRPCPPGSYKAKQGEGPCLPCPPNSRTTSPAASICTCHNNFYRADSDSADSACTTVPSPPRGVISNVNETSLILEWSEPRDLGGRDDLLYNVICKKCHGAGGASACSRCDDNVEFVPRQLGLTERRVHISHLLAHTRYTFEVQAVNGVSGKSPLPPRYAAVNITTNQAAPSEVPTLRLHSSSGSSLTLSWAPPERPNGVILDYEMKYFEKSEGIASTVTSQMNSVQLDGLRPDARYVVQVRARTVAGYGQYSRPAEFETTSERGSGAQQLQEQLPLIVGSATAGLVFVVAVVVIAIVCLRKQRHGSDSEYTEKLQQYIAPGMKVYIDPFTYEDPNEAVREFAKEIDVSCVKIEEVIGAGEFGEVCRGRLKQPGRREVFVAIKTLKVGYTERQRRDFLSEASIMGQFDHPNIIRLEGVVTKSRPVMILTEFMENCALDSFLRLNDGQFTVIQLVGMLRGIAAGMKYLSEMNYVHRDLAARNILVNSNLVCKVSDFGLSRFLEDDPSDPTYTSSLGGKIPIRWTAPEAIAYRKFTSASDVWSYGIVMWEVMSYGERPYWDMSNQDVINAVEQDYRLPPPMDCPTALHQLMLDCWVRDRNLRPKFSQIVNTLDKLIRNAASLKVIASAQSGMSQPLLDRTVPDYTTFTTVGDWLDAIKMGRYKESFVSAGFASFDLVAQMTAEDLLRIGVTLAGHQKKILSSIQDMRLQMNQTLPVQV
Put plainly: EphB3 activation in HEK 293 cells overexpressing EphB3. The conditions noted are these: HEK 293 overexpressing EphB3, high basal activation. Type of assay: cell-based.

T1 sequence (P29317 24-976): as the sequence (P29317 24-976) above
Method for EphB3: Cells were plated in 24-well dishes at a density of 100,000 cells/well and grown for 24 hours prior to stimulation with appropriate compounds and ephrins for the given amounts of time. Compounds were prepared in DMSO at 500 times the final concentrations and 0.2% DMSO was used as vehicle control. Following treatment, cells were lysed directly in SDS Gel Loading Buffer and immunoblotted as described previously. […] For immunoprecipitation, 300,000 cells/well were plated in 6-well dishes and lysed in modified RIPA Buffer (20 mM Tris-HCl pH 7.4, 20 mM NaF, 150 mM NaCl, 10% glycerol, 0.1% SDS, 0.5% DCA, 2 mM EDTA, 1% Triton X-100) following treatment. Either 10 μg of ephrin-A1-Fc, or 4 mg of EphA2 mouse monoclonal antibody (Clone D7, Millipore) were used, and mouse IgG was used as a negative control for EphA2 IP. […] For this purpose, HEK 293 cell lines overexpressing EphA1, EphA2, EphA3, EphA4, and EphB3 kinases were utilized.

For orientation: IC50 means the concentration needed to halve the response being measured. With `COc1cc2nc(N3CCN(C(=O)C4COc5ccccc5O4)CC3)nc(N)c2cc1OC` (stereo not drawn) [Doxazosin, 2-[4-(2,3-Dihydro-1,4-benzodioxine-2-carbonyl)piperazin-1-yl]-6,7-dimethoxyquinazolin-4-amine], the “chemotactic cell migration toward HGF” value in assay [1] was “dose-dependent inhibition”. Further, the “concentration at which EphA2 activation becomes evident” value on endogenous EphA2 [2] turned out to be 50 µM. The half-maximal inhibitory concentration (IC50) in assay [3] stood at 0.74 ± 0.3 nM. In addition, the EphA2 internalization result at EphA2 was “stimulated significant EphA2 internalization”; on endogenous EphA2 [4], “caused significant internalization of the endogenous EphA2”. For the same molecule, the EphB3 activation result on EphB3 is given as “notable decrease in EphB3 activation”.

Source of the values: patent US11944624B2, “Peptide and small molecule agonists of EphA and their uses” (CASE WESTERN RESERVE UNIVERSITY, priority 2017, dated 2024).
